Results published in US6344456B1, “Piperazinone derivatives and their uses” (Laboratoire L. Lafon, priority 1998, dated 2002).
Read-outs that look alike come from different tables or passages of the source.

How the values were obtained:
Guinea Pig Platelets = assay: In vitro inhibition of collagen-induced platelet aggregation, guinea pig platelet-rich plasma; type: cell-based; conditions: guinea pig PRP, collagen 1 μg/ml, 3 minutes of contact at 37° C.
Method: (§1) A study of the inhibitory activity of the compounds of formula I on platelet aggregation was carried out in vitro, i.e. by direct contact of solutions of variable concentrations of the compounds with platelets freshly separated from a sample of whole blood, taken under standardized conditions, from laboratory animals (guinea pigs) and from healthy human subjects who have not received any substances or drugs that might interfere with blood clotting. The anti-platelet-aggregating activity was also studied ex vivo/vitro, i.e. after administration of the substances claimed in guinea pigs to measure the intensity and duration of the anti-aggregating action induced by the fraction of the test product absorbed and circulating in the blood.
1.1. Studies on Guinea Pig Platelets
Blood is taken by intracardiac puncture from male Dunkin-Hartley guinea pigs (weighing about 330 g), at a rate of 4.5 ml per 0.5 ml of trisodium citrate (concentration of the aqueous solution: 1.55%) in order to prevent all trace of clotting. The platelet-rich plasma (PRP) is obtained by centrifuging the tubes of whole blood for 15 minutes at 150 g.
The PRPs are collected as. “pools”. The platelets contained in these pools are counted using a Coulter ZM haematology automatic device: if necessary, a dilution is carried out in order for the platelet concentration in the plasma to be between 200,000 and 400,000 platelets/mm^3. Simultaneously, other samples of these pools serve to prepare the platelet-poor plasma (PPP) by centrifugation at 1,500 g for 15 minutes.
The kinetic study of the platelet aggregation is carried out by adding a collagen solution (1 μg/ml) to a volume of PRP, using a Chrono-log Corporation aggregometer (490-D1 or 560 VS) which uses an optical detection of the appearance of the thrombus.
The measurements of the aggregation inhibition are carried out after 3 minutes of contact at 37° C. with agitation.

Human Platelets = assay: In vitro inhibition of collagen-induced platelet aggregation, human platelet-rich plasma; type: cell-based; conditions: human PRP, collagen 5 μg/ml, 3 minutes of contact at 37° C., read-out: IC50 (M) in vitro Man
Method: A study of the inhibitory activity of the compounds of formula I on platelet aggregation was carried out in vitro, i.e. by direct contact of solutions of variable concentrations of the compounds with platelets freshly separated from a sample of whole blood, taken under standardized conditions, from laboratory animals (guinea pigs) and from healthy human subjects who have not received any substances or drugs that might interfere with blood clotting. The anti-platelet-aggregating activity was also studied ex vivo/vitro, i.e. after administration of the substances claimed in guinea pigs to measure the intensity and duration of the anti-aggregating action induced by the fraction of the test product absorbed and circulating in the blood. 1.2 Study on Human Platelets Venous blood is taken from a group of ten healthy human subjects of the same age, by puncture into a vein of the fold of the elbow and is collected in a glass tube containing aqueous 0.129 M sodium citrate solution (1 volume of citrate solution per 9 volumes of blood). Each tube is then centrifuged a first time at 20° C. and 100 g for 15 minutes in order to obtain the platelet-rich plasma (PRP); after removing this PRP, the tube is again centrifuged at 2,000 g for 15 minutes in order this time to remove the platelet-poor plasma (PPP). For each identified sample of PRP, the platelets are counted using a Coulter ZM counter. […] A control test intended to check the possible effect of the solvents (reference value) on the platelet aggregation is introduced into each measurement series, and is measured after 3 minutes of contact at 37° C. with agitation.

[1] = tested on: platelet aggregation induced by collagen; assay: Ex vivo/vitro anti-platelet-aggregating activity in guinea pigs after gastric administration; parameters: species or system guinea pig; conditions: 150 mg/kg; for % of g.r. inhibition guinea pig ex vivo d = 150 mg/kg −1 h: administered 1 h before blood is taken; for % of g.r. inhibition guinea pig ex vivo d = 150 mg/kg −2 h: administered 2 h before blood is taken
Method: as §1
2. ex vivo/vitro Pharmacological Study in Guinea Pigs
Evaluation of the anti-platelet-aggregating activity of the compounds is carried out in the same guinea pigs as those mentioned above (Dunkin-Hartley strain). The administration of each product in a range of doses from 150 mg/kg to 10 mg/kg and of each vehicle (5 ml/kg) is carried out via the gastric route (g.r.) 1h or 2h or 4h or 6h or 8h or 12h before blood is taken from the guinea pigs fasted the day before. The allocation of the treatments to the animals is random.
The blood is taken and then treated under the same conditions as those described above for the in vitro studies.
The results of the inhibition of the platelet aggregation obtained for each test concentration make it possible to calculate the IC50 concentration of each test product and the kinetics of the inhibitory effect and its duration of action.

IC50 (Guinea Pig Platelets; Cavia porcellus, Platelet, 0.05 h) | IC50 (Human Platelets; Platelet, 0.05 h) | Compound | % of g.r. inhibition guinea pig ex vivo d = 150 mg/kg −1 h [1] | % of g.r. inhibition guinea pig ex vivo d = 150 mg/kg −2 h [1] | IC50 (Guinea Pig Platelets) | IC50 (Human Platelets)
15 µM | 1.2e-06 M | Cl.N=C(N)c1ccc(N2CCN(CC(=O)NC(CC(=O)O)c3ccc4c(c3)OCO4)CC2=O)cc1 (centres unmarked) [Example 30, 3-{[2-(4-{4-[amino(imino)methyl]phenyl}-3-oxopiperazino)acetyl]amino}-3-(1,3-benzodioxol-5-yl)propanoic acid hydrochloride] | −14% | −17% | – | –
– | – | Ethyl 3-{[2-(4-{4-[amino(imino)methyl]phenyl}-2-oxopiperazino)-acetyl]amino}-3-(pyridyl)propanoate acetate [Example 20] | −65% | −64% | 0.63 µM | 2.8e-05 M
